Columns and labels:
Conditions in all cases: 0.0630 kg/ha
[1] = system: Ragweed, Common, Ambrosia artemisifolia; test: Postemergence herbicidal evaluation, AMBEL; type: in vivo, L.
Description: (§1) In the tests, seedling plants are grown in jiffy flats for about two weeks. The test compounds are dispersed in 50/50 acetone/water mixtures containing 0.5% TWEEN®20, a polyoxyethylene sorbitan monolaurate surfactant of Atlas Chemical Industries, in sufficient quantities to provide the equivalent of about 0.0157 kg to 0.500 kg per hectare of active compound when applied to the plants through a spray nozzle operating at 40 psi for a predetermined time. After spraying, the plants are placed on greenhouse benches and are cared for in accordance with conventional greenhouse procedures. From four to five weeks after treatment, the seedling plants are examined and rated according to the rating system set forth below. Where more than one test is involved for a given compound, the data are averaged.
(§2) Results of herbicide evaluation are expressed on a rating scale (0-9). The scale is based upon a visual observation of plant stand, vigor, malformation, size, chlorosis and overall plant appearance as compared with a control.

Galium, Galium aparine = test: Postemergence herbicidal evaluation, GALAP; type: in vivo
Description: as §1, §2

Corn, Field, Zea mays = test: Postemergence herbicidal evaluation, ZEAMX; type: in vivo, L.
Description: as §1, §2

[2] = system: Soybean, Williams, Glycine max; test: Postemergence herbicidal evaluation, GLXMAW; type: in vivo, (L.) Merr. cv Williams
Description: as §1, §2

[3] = system: Lambsquarters, Common, Chenopodium album; test: Postemergence herbicidal evaluation, CHEAL; type: in vivo, L.
Description: as §1, §2

[4] = system: Barnyardgrass, Echinochloa crus-galli; test: Postemergence herbicidal evaluation, ECHCG; type: in vivo, (L.) Beau
Description: as §1, §2

[5] = system: Foxtail, Green, Setaria viridis; test: Postemergence herbicidal evaluation, SETVI; type: in vivo, (L.) Beau
Description: as §1, §2

[6] = system: Rice, Tebonnet, Oryza sativa; test: Postemergence herbicidal evaluation, ORYSAT; type: in vivo, (L.) Tebonnet
Description: as §1, §2

[7] = system: Velvetleaf, Abutilon theophrasti; test: Postemergence herbicidal evaluation, ABUTH; type: in vivo, Medic.
Description: as §1, §2

[8] = system: Morningglory, Ivyleaf, Ipomoea hederacea; test: Postemergence herbicidal evaluation, IPOHE; type: in vivo, (L.) Jacq.
Description: as §1, §2

[9] = system: Sicklepod, Cassia obtusifolia; test: Postemergence herbicidal evaluation, CASOB; type: in vivo, L.
Description: as §1, §2

[10] = system: Wheat, Winter, cv Riband, Triticum aestivum; test: Postemergence herbicidal evaluation, TRZAWR; type: in vivo
Description: as §1, §2

Cc1ccc(OC(C)C(=O)OCCCl)c(-c2nsc3ccc(-n4c(=O)cc(C(F)(F)F)n(C)c4=O)cc23)c1 (stereo not drawn) [Compound 81, 2-Chloroethyl 2-{{2-{5-[3,6-dihydro-3-methyl-2,6-dioxo-4-(trifluoromethyl)-1(2H)-pyrimidinyl]-1,2-benzisothiazol-3-yl}-p-tolyl}oxy}propionate]
herbicide rating (0-9) [1]: 9.0 | herbicide rating (0-9) (Galium, Galium aparine): 9.0 | herbicide rating (0-9) (Corn, Field, Zea mays): 8.0 | herbicide rating (0-9) [2]: 7.0 | herbicide rating (0-9) [3]: 9.0 | herbicide rating (0-9) [4]: 9.0 | herbicide rating (0-9) [5]: 9.0 | herbicide rating (0-9) [6]: 8.0 | herbicide rating (0-9) [7]: 9.0 | herbicide rating (0-9) [8]: 9.0 | herbicide rating (0-9) [9]: 3.0 | herbicide rating (0-9) [10]: 8.5

C#CC(C)OC(=O)COc1ccc(C)cc1-c1nsc2ccc(-n3c(=O)cc(C(F)(F)F)n(C)c3=O)cc12 (stereo not drawn) [Compound 74, 1-Methyl-2-propynyl {{2-{5-[3,6-dihydro-3-methyl-2,6-dioxo-4-(trifluoromethyl)-1(2H)-pyrimidinyl]-1,2-benzisothiazol-3-yl}-p-tolyl}oxy}acetate]
herbicide rating (0-9) [1]: 9.0 | herbicide rating (0-9) (Galium, Galium aparine): 9.0 | herbicide rating (0-9) (Corn, Field, Zea mays): 8.5 | herbicide rating (0-9) [2]: 9.0 | herbicide rating (0-9) [3]: 9.0 | herbicide rating (0-9) [4]: 9.0 | herbicide rating (0-9) [5]: 9.0 | herbicide rating (0-9) [6]: 7.0 | herbicide rating (0-9) [7]: 9.0 | herbicide rating (0-9) [8]: 9.0 | herbicide rating (0-9) [9]: 9.0 | herbicide rating (0-9) [10]: 7.5

C=CCOC(=O)C(C)Oc1ccc(C)cc1-c1nsc2ccc(-n3c(=O)cc(C(F)(F)F)n(C)c3=O)cc12 (stereo not drawn) [Compound 78, Allyl 2-{{2-{5-[3,6-dihydro-3-methyl-2,6-dioxo-4-(trifluoromethyl)-1(2H)-pyrimidinyl]-1,2-benzisothiazol-3-yl}-p-tolyl}oxy}propionate]
herbicide rating (0-9) [1]: 9.0 | herbicide rating (0-9) (Galium, Galium aparine): 7.0 | herbicide rating (0-9) (Corn, Field, Zea mays): 7.5 | herbicide rating (0-9) [2]: 6.5 | herbicide rating (0-9) [3]: 9.0 | herbicide rating (0-9) [4]: 9.0 | herbicide rating (0-9) [5]: 9.0 | herbicide rating (0-9) [6]: 7.0 | herbicide rating (0-9) [7]: 9.0 | herbicide rating (0-9) [8]: 9.0 | herbicide rating (0-9) [9]: 3.0 | herbicide rating (0-9) [10]: 9.0

CC#CC(C)OC(=O)COc1ccc(C)cc1-c1nsc2ccc(-n3c(=O)cc(C(F)(F)F)n(C)c3=O)cc12 (stereo not drawn) [Compound 76, 1-Methyl-2-butynyl {{2-{5-[3,6-dihydro-3-methyl-2,6-dioxo-4-(trifluoromethyl)-1(2H)-pyrimidinyl]-1,2-benzisothiazol-3-yl}-p-tolyl}oxy}acetate]
herbicide rating (0-9) [1]: 9.0 | herbicide rating (0-9) (Galium, Galium aparine): 9.0 | herbicide rating (0-9) (Corn, Field, Zea mays): 8.0 | herbicide rating (0-9) [2]: 9.0 | herbicide rating (0-9) [3]: 9.0 | herbicide rating (0-9) [4]: 9.0 | herbicide rating (0-9) [5]: 9.0 | herbicide rating (0-9) [6]: 6.0 | herbicide rating (0-9) [7]: 9.0 | herbicide rating (0-9) [8]: 9.0 | herbicide rating (0-9) [9]: 9.0 | herbicide rating (0-9) [10]: 9.0

COC(=O)C(C)Oc1ccc(C)cc1-c1nsc2ccc(-n3c(=S)cc(C(F)(F)F)n(C)c3=O)cc12 (stereo not drawn) [Compound 33, Methyl 2-{{2-{5-[3,6-dihydro-3-methyl-2-oxo-6-thioxo-4-(trifluoromethyl)-1(2H)-pyrimidinyl]-1,2-benzisothiazol-3-yl}-p-tolyl}oxy}propionate]
herbicide rating (0-9) [1]: 9.0 | herbicide rating (0-9) (Galium, Galium aparine): 9.0 | herbicide rating (0-9) (Corn, Field, Zea mays): 8.5 | herbicide rating (0-9) [2]: 6.0 | herbicide rating (0-9) [3]: 9.0 | herbicide rating (0-9) [4]: 9.0 | herbicide rating (0-9) [5]: 9.0 | herbicide rating (0-9) [6]: 7.5 | herbicide rating (0-9) [7]: 9.0 | herbicide rating (0-9) [8]: 9.0 | herbicide rating (0-9) [9]: 8.0 | herbicide rating (0-9) [10]: 8.5

Cc1ccc(OC(C)C(=O)OC(C)C)c(-c2nsc3ccc(-n4c(=O)cc(C(F)(F)F)n(C)c4=O)cc23)c1 (stereo not drawn) [Compound 82, Isopropyl 2-{{2-{5-[3,6-dihydro-3-methyl-2,6-dioxo-4-(trifluoromethyl)-1(2H)-pyrimidinyl)-1,2-benzisothiazol-3-yl}-p-tolyl}oxy}propionate]
herbicide rating (0-9) [1]: 6.0 | herbicide rating (0-9) (Galium, Galium aparine): 4.0 | herbicide rating (0-9) (Corn, Field, Zea mays): 5.5 | herbicide rating (0-9) [2]: 5.5 | herbicide rating (0-9) [3]: 9.0 | herbicide rating (0-9) [4]: 7.0 | herbicide rating (0-9) [5]: 9.0 | herbicide rating (0-9) [6]: 5.5 | herbicide rating (0-9) [7]: 9.0 | herbicide rating (0-9) [8]: 9.0 | herbicide rating (0-9) [9]: 1.0 | herbicide rating (0-9) [10]: 6.0

C=CCOC(=O)COc1ccc(C)cc1-c1nsc2ccc(-n3c(=O)cc(C(F)(F)F)n(C)c3=O)cc12 [Compound 69, Allyl {{2-{5-[3,6-dihydro-3-methyl-2,6-dioxo-4-(trifluoromethyl)-1(2H)-pyrimidinyl]-1,2-benzisothiazol-3-yl}-p-tolyl}oxy}acetate]
herbicide rating (0-9) [1]: 9.0 | herbicide rating (0-9) (Galium, Galium aparine): 9.0 | herbicide rating (0-9) (Corn, Field, Zea mays): 8.5 | herbicide rating (0-9) [2]: 9.0 | herbicide rating (0-9) [3]: 9.0 | herbicide rating (0-9) [4]: 9.0 | herbicide rating (0-9) [5]: 9.0 | herbicide rating (0-9) [6]: 8.0 | herbicide rating (0-9) [7]: 9.0 | herbicide rating (0-9) [8]: 9.0 | herbicide rating (0-9) [9]: 9.0 | herbicide rating (0-9) [10]: 8.0

From patent US6156700A, “3-(1,2-Benzisothiazol- and isoxazol-5-yl)-2,4(1H,3H)-pyrimidinedione or thione and 3-(1,2-benzisothiazol- and isoxazol-5-yl)-4(3H)-pyrimidinone or thione herbicidal agents” (American Cyanmid Company, priority 1998, dated 2000)
